Counter-ions that a name gives are not always drawn.

The source of these data is US12098176B2, “Keratin BD-4, preparation method, and pharmaceutical composition and use thereof” (Institute of Materia Medica, Chinese Academy of Medical …, priority 2019, dated 2024).

In the assay the test system is phenol red excretion in mice. As to the kind of experiment: Expectorant test, phenol red excretion method in mice. The class given is in vivo, mouse. The procedure:
Experimental example 5 The pharmacodynamic test of protein BD-4 (Example 4 protein) on the expectorant of phenol red excretion method in mice.
• Solvent control group; • Mucosultan 30 mg/kg group; • Protein BD-4, 20 mg/kg group, 50 mg/kg group. Method: Model Preparation and Administration:
The animals were fasted and watered 16 hours before the experiment. Orally administered Mucosultan and different doses of protein BD-4 (administration volume 10 ml/kg) in groups, and the solvent control group was given the same volume of distilled water. One hour later, 2.5% phenol red solution was injected intraperitoneally, Kill the mouse by removing the neck after 30 minutes. Take the trachea from below the thyroid cartilage to the branch of the trachea. Put the trachea into 3 ml 5% NaHCO3 solution and let it stand for 3 hours. Take 1 ml of the supernatant and centrifuge at 3000 rpm for 5 minutes. Measure and record the absorbance at 546 nm. According to the standard curve of phenol red, the excretion of phenol red was calculated.
Record the time point of oral administration, the time point of intraperitoneal injection of 2.5% phenol red solution, and the time point of tracheal extraction respectively; The absorbance of each group of samples was measured by the microplate reader at 546 nm, Calculate the excretion of phenol red according to the standard curve of phenol red. […]

With `Nc1c(Br)cc(Br)cc1CN[C@H]1CC[C@H](O)CC1` [Mucosolvan, ambroxol hydrochloride, reference compound], the Phenol red excretion (Mucosolvan 30 mg/kg oral, X ± SEM) stood at 1.138 ± 0.079 µg/mL. The “Phenol red excretion vs solvent control group” value (Mucosultan 30 mg/kg, P<0.05) is “significantly increased”.
